Reference: EP0738149B1 (priority 1994, dated 1995)
Read-outs that look alike come from different tables or passages of the source.

Tests used:
rats [1] = assay: Closed head injury in rats: brain oedema (water content), Experiments 4A-4E; assay type: in vivo; settings: Exp 4A; relative to normal brain water content of 78.5 %
Description: After the second evaluation of motor function, the animals were sacrificed and the brains were removed. A piece of tissue was weighed to yield a wet weight(WW), then dried in an oven for 24 hours at 95C and re-weighed to yield a dry weight(DW). Percentage water content in the tissue was calculated as (WW-DW)x100/WW.

male ICR albino mice = assay: Hypobaric hypoxia survival time in mice; assay type: in vivo
Summary of the method: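 Drugs given i.p. 1 h before hypobaric hypoxia at 100 mmHg; time to respiratory arrest recorded, cutoff 15 min. Effect expressed as percent of saline- or vehicle-control survival time. Each dose tested in two groups of 4 mice, controls run before and after.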

[2] = test system: mechanically dissociated neonatal rat cerebellum; assay: Reversal of NMDA induced cell death in cultures of neonatal rat cerebellum; assay type: cell-based; settings: for SURVIVING CELL IN CULTURE: relative to control (100%); for PERCENT PROTECTION: Cell Survival minus the NMDA effect; for EFFECTIVE PROTECTION: X x 100/70
Summary of the method: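 Cerebellar cells from 6–7-day rat pups on poly-L-lysine at 200/mm^2, grown 3 days (37°C, 5% CO2), then compound with NMDA challenge (1mM, 3 hours); spermine (0.01 micromoles) plus NMDA as positive control, duplicates. Survival by phase contrast and trypan blue after 24 hours; effective protection = percent protection ×100/70.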

mice [3] = assay: Maximal electroshock (MES) model in mice, i.p.;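 also: Electroshock-induced convulsion model serving to demonstrate antiepileptic efficacy against generalized and partial seizures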; assay type: in vivo; settings: Mus musculus, ip, Table 15
[4] = test system: mechanically dissociated neonatal rat cerebellum; assay: Enhancement of cell survival in cultures of neonatal rat cerebellum (no NMDA); assay type: cell-based; settings: 24 hours after addition, percentage of the number of control cells on the fourth day
Description: The cerebellum was aseptically dissociated from 6 or 7-day old rat pups and placed in a 15ml sterile plastic conical tube containing 3ml of Dulbecco's modified Eagle's medium (DMEM) with a high glucose concentration ([…]) and 2mM (v/v) L-glutamine and an antibiotic antimitotic mixture. The cerebella were then dissociated after 20-25 passages through a sterile 13 gauge, 10cm long stainless steel needle attached to a 5ml syringe with an inserted 45 micrometer pore nylon sieve. The dissociated cells were centrifuged at 200g for 5 minutes. […] Cell viability was determined by the tryptan blue exclusion test.
Cells were plated at a density of 200/mm^2 on poly-L-lysine coated surfaces. Poly-L-lysine coated glass coverslips were prepared at least one hour in advance of plating by immersing sterile coverslips in sterile distilled water solution containing 15 microgram/ml poly-L-lysine, and washing in sterile water just prior to use. […] After three days in culture, the media was replaced with media containing the desired test compound. Each test compound was tested in duplicate. Toxic-dose response was determined for each compound.
Cell cultures were grown as described above but in the absence of NMDA and after 3 days a dose of test compound was added. Cell survival was monitored as described above.

rats [5] = assay: Electrically kindled rat model of epilepsy, p.o.; assay type: in vivo; settings: po, read-out: ED50 (prevented seizures)
Text: The rat electrical kindling model of epilepsy has been known to show efficacy of antiepileptic agents against complex partial seizures that evolve into generalized motor seizures. In these tests, rats were electrically stimulated via corneal electrodes twice daily for approximately 5 days and then once daily for an additional 10 days. Once the seizure criteria, as described by R.J. Racine, et al., Electroenceph. Clin. Neurophysiol. 32: 281-294 (1972), were met, the test substance was administered p.o. to rats, and the rat electrically stimulated, and observed for the presence or absence of a seizure.

mice [6] = settings: Mus musculus, ip, read-out: MICE scMet ED50, mice, i.p.; Table 16
[7] = 50 mg/kg ip one hour prior to hypoxia
[8] = 100 mg/kg ip one hour prior to hypoxia
[9] = dose cell empty (line below 50 mg/kg ip)
[10] = 0.005 µM + NMDA 1mM for 3 hours
[11] = 0.010 µM + NMDA 1mM for 3 hours
[12] = 0.100 µM + NMDA 1mM for 3 hours

| SMILES | PROTECTION % OF RESPECTIVE CONTROL (male ICR albino mice; [7]) | PROTECTION % OF RESPECTIVE CONTROL (male ICR albino mice; [8]) | PROTECTION % OF RESPECTIVE CONTROL (male ICR albino mice; [9]) | SURVIVING CELL IN CULTURE [2, 10] | PERCENT PROTECTION ([2]; 0.005 µM + NMDA) | EFFECTIVE PROTECTION ([2]; 0.005 µM + NMDA) | SURVIVING CELL IN CULTURE [2, 11] | PERCENT PROTECTION ([2]; 0.010 µM + NMDA) | EFFECTIVE PROTECTION ([2]; 0.010 µM + NMDA) | SURVIVING CELL IN CULTURE [2, 12] | PERCENT PROTECTION ([2]; 0.100 µM + NMDA) | also measured |
| --- | --- | --- | --- | --- | --- | --- | --- | --- | --- | --- | --- | --- |
| N[C@@H]1CCc2ccccc21 [R-AI, (R)-1-aminoindan] | 358±224 % OF RESPECTIVE CONTROL | 395±199 % OF RESPECTIVE CONTROL | 411±174 % OF RESPECTIVE CONTROL | 80% | 50% | 71% | 30% | 0% | 0% | 28% | -2% | reduction in trauma-induced oedema (rats [1]): 50% |
| CC(=O)N[C@@H]1CCc2ccccc21 [Example 18, (R)-N-Acetyl-1-aminoindan] | 271±193 % OF RESPECTIVE CONTROL | 397±244 % OF RESPECTIVE CONTROL | 383±233 % OF RESPECTIVE CONTROL | 80% | 50% | 71% | 80% | 50% | 71% | 55% | 25% | ED50 (mice [3]): 31 mg/kg; EFFECTIVE PROTECTION ([2]; 0.100 µM + NMDA): 36%; SURVIVING CELL IN CULTURE ([2]; 1.000 µM + NMDA 1mM for 3 hours): 47%; PERCENT PROTECTION ([2]; 1.000 µM + NMDA): 17%; EFFECTIVE PROTECTION ([2]; 1.000 µM + NMDA): 24%; SURVIVING CELL IN CULTURE ([2]; 5.000 µM + NMDA 1mM for 3 hours): 32%; PERCENT PROTECTION ([2]; 5.000 µM + NMDA): 2%; EFFECTIVE PROTECTION ([2]; 5.000 µM + NMDA): 3%; % ENHANCED SURVIVAL ([4]; 0.01 µM): 145%; % ENHANCED SURVIVAL ([4]; 0.10 µM): 130%; % ENHANCED SURVIVAL ([4]; 1.00 µM): 126%; ED50 (rats [5]): 24.6 mg/kg; ED50 (mice [6]): 66 mg/kg |
